Laboratory results reported in patent US20090175848A1, “Modulation of the Cooperativity Between the Ion Channels TRPM5 and TRPA1” (priority 2007, published 2009).

Assays:
[1] = test system: TRPM5-expressing HEK-293 cells (TRPM5-293); test: FLIPR calcium assay in TRPM5-293 cells; type: cell-based, human; details: for effect on AITC calcium response: pre-treatment, then AITC, TRPM5-293 cells
Procedure: (§1) To create a stably transfected cell line expressing hTRPM5, 1.0×10^6 HEK 293 cells (ATCC, Manassas, Va.) were seeded in 35 mm tissue culture dishes (Falcon, BD Biosciences, Bedford, Mass.) and grown overnight in a 37° C. and 5% CO2 incubator, in culture medium consisting of DMEM, 10% fetal bovine serum (FBS), and penicillin with streptomycin. The next day, the cells were transfected using 4 μg of pcDNA 3.2-hTRPM5 with 7 μl of Lipofectamine 2000 (Invitrogen), following the manufacturer's protocol. After two days in culture, the cells were replated at 1:10 and 1:100 dilution, and from those plates seeded at very low density in 96-well plates to isolate single-cell colonies. To select individual clones, 1 mg/ml Geneticin (Invitrogen) was added to the culture medium. Once stably expressing clones were identified, the concentration of Geneticin was reduced to 0.25 mg/ml for expansion and maintenance. […]
For hTRPM5-293 or HEK293 assays, cells were seeded overnight in poly-D-lysine coated 384-well plates at 15,000 cells per well in 20 μl of media. […] The assay was performed using a fluorometric imaging plate reader (FLIPR-Tetra™, Molecular Devices, Sunnyvale, Calif.), using the excitation 510-545 nm and emission 565-625 nm filter sets. […] The plates were read on the FLIPR® for a total of 3 minutes for a single addition assay and 6 minutes for a 2 addition assay. For single addition assays, baseline fluorescence was obtained on the FLIPR® for 10 seconds followed by addition of each sample by the FLIPR® and read for an additional 2 minutes and 50 seconds. For 2 addition assays, baseline fluorescence was obtained on the FLIPR® for 10 seconds followed by addition of the first sample (e.g. inhibitors, EGTA) by the FLIPR®, read for 2 minutes and 50 seconds, then followed by the addition of AITC and read for another 3 minutes. For ΔRFU measurements, the baseline fluorescence signal (RFUmin) was subtracted from the peak fluorescence signal (RFUmax) at each compound concentration (RFUmax—RFUmin). ΔRFU values for individual concentrations were measured in triplicate, and s.d. reported as error bars.

[2] = test system: TRPM5-expressing HEK cells; test: Whole-cell electrophysiology in TRPM5-expressing HEK cells; type: cell-based, human; details: whole-cell voltage clamp, voltage dependence
Procedure: Whole-cell recordings of TRP channel currents were obtained from acutely trypsinized TRPM5-expressing HEK cells. The bath solution was Hank's Balanced Salt Solution, composed of (mM); 1.2 CaCl2, 0.5 MgCl2-6H2O, 0.4 MgSO4-7H2O, 5.3 KCl, 0.4 KH2PO4, 137.9 NaCl, 0.3 Na2HPO4-7H2O, and 5.5 D-Glucose, with 20 mM HEPES (Invitrogen), pH 7.4 (NaOH). The internal pipette solution contained, in mM: 135 glutamic acid, 8 NaCl, 3 CaCl2, 10 HEPES and 10 EGTA, pH 7.2 (CsOH) (Sigma). Calculated concentration of free calcium in internal solution was 77 nM (MaxChelator, Stanford University). Recording pipettes were pulled using a Flaming/Brown Micropipette Puller (Sutter Instruments), from fire-polished borosilicate glass, to approximately 2 MΩ. Voltage clamp recordings were obtained in whole cell mode using MultiClamp 700B amplifier and Digidata 1322A converter running on Clampex 9.2 software (Axon Instruments). Recordings were performed at room temperature. Series resistance was automatically compensated immediately after the break-in. Data were sampled at 5 kHz and filtered at 1 kHz. AITC was dissolved in bath solution and applied to the cells with a multi-barrel applicator (SF-72, Warner Instruments).

[3] = test system: Chinese hamster ovary (CHO) cells expressing TRPM5; test: FLIPR assay in CHO cells expressing TRPM5; type: cell-based; details: TRPM5 expressed in CHO cells
Procedure: as §1, with “colonies.” for “colonies. To select individual clones, 1 mg/ml Geneticin (Invitrogen) was added to the culture medium. Once stably expressing clones were identified, the concentration of Geneticin was reduced to 0.25 mg/ml for expansion and maintenance.”
For hTRPM5-293 or HEK293 assays, cells were seeded overnight in poly-D-lysine coated 384-well plates at 15,000 cells per well in 20 μl of media. […] The assay was performed using a fluorometric imaging plate reader (FLIPR-Tetra™, Molecular Devices, Sunnyvale, Calif.), using the excitation 510-545 nm and emission 565-625 nm filter sets. […] The plates were read on the FLIPR® for a total of 3 minutes for a single addition assay and 6 minutes for a 2 addition assay. For single addition assays, baseline fluorescence was obtained on the FLIPR® for 10 seconds followed by addition of each sample by the FLIPR® and read for an additional 2 minutes and 50 seconds. […]

parental HEK-293 cells = test: FLIPR calcium assay in untransfected cells; type: cell-based, human; details: untransfected (parental HEK-293) cells
Procedure: For hTRPM5-293 or HEK293 assays, cells were seeded overnight in poly-D-lysine coated 384-well plates at 15,000 cells per well in 20 μl of media. For assays of hTrpM5-CHO-M1 assays cells were seeded overnight in tissue culture treated 384-well plates at 10,000 cells per well in 20 μl of media. The assay was performed using a fluorometric imaging plate reader (FLIPR-Tetra™, Molecular Devices, Sunnyvale, Calif.), using the excitation 510-545 nm and emission 565-625 nm filter sets. The cells were loaded with 20 μl/well of Membrane Potential Assay Kit RED dye (Molecular Devices), in a 37° C. and 5% CO2 incubator for 1 hour. To measure intracellular calcium changes, the Calcium 3 dye (Molecular Devices) supplemented with 125 μM was used. […] The plates were read on the FLIPR® for a total of 3 minutes for a single addition assay and 6 minutes for a 2 addition assay. For single addition assays, baseline fluorescence was obtained on the FLIPR® for 10 seconds followed by addition of each sample by the FLIPR® and read for an additional 2 minutes and 50 seconds. For 2 addition assays, baseline fluorescence was obtained on the FLIPR® for 10 seconds followed by addition of the first sample (e.g. inhibitors, EGTA) by the FLIPR®, read for 2 minutes and 50 seconds, then followed by the addition of AITC and read for another 3 minutes. […]

[4] = test system: TRPM5-expressing HEK-293 cells (TRPM5-293); test: FLIPR membrane potential assay in TRPM5-293 cells; type: cell-based, human; details: for effect on AITC membrane potential response: pre-treatment, then AITC, TRPM5-293 cells
Procedure: To create a stably transfected cell line expressing hTRPM5, 1.0×10^6 HEK 293 cells (ATCC, Manassas, Va.) were seeded in 35 mm tissue culture dishes (Falcon, BD Biosciences, Bedford, Mass.) and grown overnight in a 37° C. and 5% CO2 incubator, in culture medium consisting of DMEM, 10% fetal bovine serum (FBS), and penicillin with streptomycin. The next day, the cells were transfected using 4 μg of pcDNA 3.2-hTRPM5 with 7 μl of Lipofectamine 2000 (Invitrogen), following the manufacturer's protocol. After two days in culture, the cells were replated at 1:10 and 1:100 dilution, and from those plates seeded at very low density in 96-well plates to isolate single-cell colonies. To select individual clones, 1 mg/ml Geneticin (Invitrogen) was added to the culture medium. Once stably expressing clones were identified, the concentration of Geneticin was reduced to 0.25 mg/ml for expansion and maintenance. Clones were selected on the basis of their response to ATP (Sigma) and lonomycin (Sigma) in the FLIPR® assay using the Membrane Potential Assay Kit RED (Molecular Devices). Stable cell lines in chinese hamster ovary cells (CHO-M1) were created similarly except that 5.0×10^5 cells were plated in 35 mm dishes overnight and the selection medium consisted of F-12K/Ham's, 10% fetal bovine serum (FBS), 100 μg/ml of Geneticin, and 10 μg/ml Blasticidin S HCl, and penicillin with streptomycin. Stably expressing clones were maintained in the same medium except that the Balsticidin S HCl concentration was reduced to 5 μg/ml.
For hTRPM5-293 or HEK293 assays, cells were seeded overnight in poly-D-lysine coated 384-well plates at 15,000 cells per well in 20 μl of media. For assays of hTrpM5-CHO-M1 assays cells were seeded overnight in tissue culture treated 384-well plates at 10,000 cells per well in 20 μl of media. The assay was performed using a fluorometric imaging plate reader (FLIPR-Tetra™, Molecular Devices, Sunnyvale, Calif.), using the excitation 510-545 nm and emission 565-625 nm filter sets. The cells were loaded with 20 μl/well of Membrane Potential Assay Kit RED dye (Molecular Devices), in a 37° C. and 5% CO2 incubator for 1 hour. To measure intracellular calcium changes, the Calcium 3 dye (Molecular Devices) supplemented with 125 μM was used. The plates were equilibrated to room temperature for 15 minutes before the start of the assay. The compounds allyl isothiocyanate (AITC), cinnamaldehyde, EGTA, ionomycin, U73122, U73144 were purchased from Sigma-Aldrich (St. Louis, Mo.) and stocks prepared in DMSO. Samples were diluted in HBSS with 20 mM HEPES prior to the assay and 10 μl per well was added to the assay plate. The plates were read on the FLIPR® for a total of 3 minutes for a single addition assay and 6 minutes for a 2 addition assay. For single addition assays, baseline fluorescence was obtained on the FLIPR® for 10 seconds followed by addition of each sample by the FLIPR® and read for an additional 2 minutes and 50 seconds. For 2 addition assays, baseline fluorescence was obtained on the FLIPR® for 10 seconds followed by addition of the first sample (e.g. inhibitors, EGTA) by the FLIPR®, read for 2 minutes and 50 seconds, then followed by the addition of AITC and read for another 3 minutes. For ΔRFU measurements, the baseline fluorescence signal (RFUmin) was subtracted from the peak fluorescence signal (RFUmax) at each compound concentration (RFUmax—RFUmin). ΔRFU values for individual concentrations were measured in triplicate, and s.d. reported as error bars.

[5] = agonist added to TRPM5-293 cells, FLIPR

SMILES | intracellular calcium levels [1, 5] | desensitization of the AITC-activated current [2] | activation of TRPM5 [3] | intracellular calcium response (parental HEK-293 cells) | EC50 ([4]; Homo sapiens, HEK293, read-out: EC50 (tested concentration closest to it)) | EC90 ([4]; Homo sapiens, HEK293, read-out: EC90 (tested concentration closest to it)) | membrane potential response [4, 5] | effect on AITC calcium response [1] | effect on AITC membrane potential response [4] | effect on ionomycin membrane potential response ([4]; ionomycin as stimulus)
C=CCN=C=S [AITC, allyl isothiocyanate] | increase in intracellular calcium levels | delayed at positive membrane potentials | does not activate | no response | ~3 µM | ~33 µM | strong membrane potential response | – | – | –
O=C(O)CN(CCOCCOCCN(CC(=O)O)CC(=O)O)CC(=O)O [EGTA] | – | – | – | – | – | – | – | inhibited the calcium response | altered the membrane potential | –
COc1ccc2c(c1)CC[C@@H]1[C@@H]2CC[C@]2(C)[C@@H](NCCCCCCN3C(=O)C=CC3=O)CC[C@@H]12 [U73122] | – | – | – | – | – | – | – | enhanced | enhanced | enhances
